In brackets after ≈: the same amount, converted by molar mass. Read-outs that look alike come from different tables or passages of the source.
Legend:
NCI-H358 cells = assay: NCI-H358 CTG proliferation assay (120 h) (NSCLC, G12C); type: cell-based, human; details: Homo sapiens
Experimental: NCI-H358 CTG Proliferation Assay (120 h) (NSCLC, G12C)
NCI-H358 cells (ATCC No. CRL-5807) are dispensed into white bottom opaque 96 well plates (Perkin Elmer cat no. 5680) at a density of 2000 cells per well in 100 μL RPMI-1640 ATCC-Formulation (Gibco #A10491)+10% FCS (fetal calf serum) (assay 1) or into black 384-well plates, flat and clear bottom (Greiner, PNr. 781091) at a density of 200 cells per well in 60 μl RPMI-1640 ATCC-Formulation (Gibco #A10491)+10% FCS (fetal calf serum) (assay 2). […] Compounds (10 mM stock in DMSO) are added at logarithmic dose series using the HP Digital Dispenser D300 (Tecan) (assay 1) or the ECHO acoustic liquid handler system (Beckman Coulter) (assay 2), normalizing for added DMSO and including DMSO controls. For the TO time point measurement, untreated cells are analyzed at the time of compound addition. Plates are incubated for 120 h, and cell viability is measured using CellTiter-Glo luminescent cell viability reagent (Promega product code G7570). Viability (stated as percent of control) is defined as relative luminescence units RLU of each well divided by the RLU of cells in DMSO controls. IC50 values are determined from viability measurements by non-linear regression using a four parameter model.

AsPC-1 cells = assay: AsPC-1 CTG proliferation assay (120 h) (pancreatic cancer, G12D); type: cell-based; details: Homo sapiens, ASPC1
Experimental: AsPC-1 CTG Proliferation Assay (120 h) (Pancreatic Cancer, G12D)
The CTG assay is designed to measure quantitatively the proliferation of AsPC-1 cells (ATCC […]), using the CellTiter Glow Assay Kit (Promega G7571). Cells are grown in RPMI medium (ATCC) supplemented with Fetal Calf Serum (Life Technologies, Gibco BRL, Cat. No. 10270-106). On “day 0” 2000 AsPC-1 cells are seeded in 60 μL RPMI ATCC+10% FCS+Penstrep in a 384-well plate, flat and clear bottom (Greiner, PNr. 781091). Cells are then incubated in the plates at 37° C. in a CO2 incubator overnight. On day 1, compounds (10 mM stock in DMSO) are added with the ECHO acoustic liquid handler system (Beckman Coulter), including DMSO controls. Plates are incubated for 120 h, and cell viability is measured using CellTiter-Glo luminescent cell viability reagent (Promega product code G7570). Viability (stated as percent of control) is defined as relative luminescence units RLU of each well divided by the RLU of cells in DMSO controls. IC50 values are determined from viability measurements by non-linear regression using a four-parameter model.

[1] = Solubility measurement (DMSO solution method), McIlvaine buffer pH 4.5 or 6.8; type: physicochemical; details: aqueous buffer, kinetic from dmso stock, DMSO stock diluted to 250 μM, 24 h shaking at ambient temperature
Experimental: The DMSO solution is diluted with an aqueous medium (Mcllvaine buffer with pH=4.5 or 6.8) to a final concentration of 250 μM. After 24 h of shaking at ambient temperature a potentially formed precipitate is removed by filtration. The concentration of the test compound in the filtrate is determined by LC-UV methods by calibrating the signal to the signal of a reference solution with complete dissolution of the test compound in acetonitrile/water (1:1) with known concentration.

[2] = assay 1, CTG, read-out: H358 (assay 1) IC50
[3] = assay 2, CTG, read-out: H358 (assay 2) IC50
[4] = McIlvaine buffer pH 4.5, read-out: solubility pH 4.5
[5] = McIlvaine buffer pH 6.8, read-out: solubility pH 6.8

| SMILES | IC50 (NCI-H358 cells; [2]) | IC50 (NCI-H358 cells; [3]) | IC50 (AsPC-1 cells) | solubility at 24 h [1, 4] | solubility at 24 h [1, 5] |
| --- | --- | --- | --- | --- | --- |
| C[C@H](Oc1cc(N2CCNC3(CC3)C2)nc(-c2onc3c2CCC[C@@]32CCCc3sc(N)c(C#N)c32)n1)[C@@H]1CCCN1C [I-5] | 813 nM | 852 nM | 86 nM | > 138 µg/mL | > 123 µg/mL |
| C[C@H](Oc1cc(N2C[C@H](C)N[C@@H](C)C2)nc(-c2onc3c2CCC[C@@]32CCCc3sc(N)c(C#N)c32)n1)[C@@H]1CCCN1C [I-6] | 809 nM | – | 1700 nM | > 147 µg/mL | > 144 µg/mL |
| C[C@H]1CN(C)CCCN1c1cc(N2CCN(C)CC2)nc(-c2onc3c2CCC[C@@]32CCCc3sc(N)c(C#N)c32)n1 [I-7] | – | – | 2370 nM | > 139 µg/mL | > 133 µg/mL |
| C[C@H](Oc1cc(N2C[C@H](C)NC3(CC3)C2)nc(-c2onc3c2CCC[C@@]32CCCc3sc(N)c(C#N)c32)n1)[C@@H]1CCCN1C [I-8] | 874 nM | – | 512 nM | > 146 µg/mL | 116 µg/mL (≈ 189 µM) |
| C[C@H](Oc1cc(N2CCN3CCC3C2)nc(-c2onc3c2CCC[C@@]32CCCc3sc(N)c(C#N)c32)n1)[C@@H]1CCCN1C (some centres unmarked) [I-9] | – | 1310 nM | 2850 nM | > 149 µg/mL | > 147 µg/mL |
| C[C@H](Oc1cc(N2CCNCC23CCOC3)nc(-c2onc3c2CCC[C@@]32CCCc3sc(N)c(C#N)c32)n1)[C@@H]1CCCN1C (some centres unmarked) [I-10] | – | 200 nM | – | > 141 µg/mL | > 136 µg/mL |
| C[C@H](Oc1cc(N2CC[C@H](N(C)C)C2)nc(-c2onc3c2CCC[C@@]32CCCc3sc(N)c(C#N)c32)n1)[C@@H]1CCCN1C [I-11] | – | 1980 nM | 565 nM | > 141 µg/mL | 112 µg/mL (≈ 186 µM) |
| C[C@H](Oc1cc(N2CC[C@H](N(C)C)C2)nc(-c2noc3c2CCC[C@@]32CCCc3sc(N)c(C#N)c32)n1)[C@@H]1CCCN1C [II-49] | – | 1910 nM | 511 nM | > 141 µg/mL | 114 µg/mL (≈ 189 µM) |
| C[C@H](Oc1cc(N2CCNC[C@]23CCOC3)nc(-c2noc3c2CCC[C@@]32CCCc3sc(N)c(C#N)c32)n1)[C@@H]1CCCN1C [II-50] | – | 2710 nM | 142 nM | > 144 µg/mL | > 135 µg/mL |
| C[C@H](Oc1cc(N2CCNC[C@@]23CCOC3)nc(-c2noc3c2CCC[C@@]32CCCc3sc(N)c(C#N)c32)n1)[C@@H]1CCCN1C [II-51] | – | 3360 nM | 903 nM | > 138 µg/mL | > 133 µg/mL |
| C[C@H](Oc1cc(-n2cc3c(n2)CCNC3)nc(-c2noc3c2CCC[C@@]32CCCc3sc(N)c(C#N)c32)n1)[C@@H]1CCCN1C [II-53] | – | 230 nM | 825 nM | – | – |
| C[C@H](Oc1cc(N2CCNC3(CC3)C2)nc(-c2noc3c2CCC[C@@]32CCCc3sc(N)c(C#N)c32)n1)[C@@H]1CCCN1C [II-54] | 298 nM | 908 nM | 67 nM | > 134 µg/mL | > 122 µg/mL |
| C[C@H](Oc1cc(N2CCN(C)CC2)nc(-c2noc3c2CCC[C@@]32CCCc3sc(N)c(C#N)c32)n1)[C@@H]1CCCN1C [II-55] | – | 588 nM | 748 nM | > 172 µg/mL | > 161 µg/mL |
| C[C@H](Oc1cc(N2C[C@H](C)N[C@@H](C)C2)nc(-c2noc3c2CCC[C@@]32CCCc3sc(N)c(C#N)c32)n1)[C@@H]1CCCN1C [II-56] | 587 nM | 173 nM | 378 nM | > 144 µg/mL | > 146 µg/mL |
| C[C@H](Oc1cc(N2CCC[C@H](O)C2)nc(-c2noc3c2CCC[C@@]32CCCc3sc(N)c(C#N)c32)n1)[C@@H]1CCCN1C [II-57] | – | 286 nM | 1840 nM | 109 µg/mL (≈ 185 µM) | 101 µg/mL (≈ 171 µM) |
| CO[C@@H]1C[C@@H]([C@H](C)Oc2cc(-n3ccnc3)nc(-c3noc4c3CCC[C@@]43CCCc4sc(N)c(C#N)c43)n2)N(C)C1 [II-58] | – | 562 nM | 6420 nM | > 124 µg/mL | 2 µg/mL (≈ 3.41 µM) |
| C[C@H](Oc1cc(N2CCC[C@@H](O)C2)nc(-c2noc3c2CCC[C@@]32CCCc3sc(N)c(C#N)c32)n1)[C@@H]1CCCN1C [II-59] | – | 337 nM | 2240 nM | > 133 µg/mL | > 123 µg/mL |
| C[C@H](Oc1cc(N2CCOC3(CC3)C2)nc(-c2noc3c2CCC[C@@]32CCCc3sc(N)c(C#N)c32)n1)[C@@H]1CCCN1C [II-61] | – | 1420 nM | 1550 nM | 111 µg/mL (≈ 184 µM) | 41 µg/mL (≈ 68.1 µM) |
| CO[C@@H]1C[C@@H]([C@H](C)Oc2cc(-c3cnn(C)n3)nc(-c3noc4c3CCC[C@@]43CCCc4sc(N)c(C#N)c43)n2)N(C)C1 [II-62] | – | – | 9190 nM | > 129 µg/mL | < 1 µg/mL |
| C[C@H](Oc1cc(N2CCCC2=O)nc(-c2noc3c2CCC[C@@]32CCCc3sc(N)c(C#N)c32)n1)[C@@H]1CCCN1C [II-73] | – | – | 1810 nM | > 124 µg/mL | 88 µg/mL (≈ 153 µM) |
| C[C@H](Oc1cc(-c2ccn(C3COC3)n2)nc(-c2noc3c2CCC[C@@]32CCCc3sc(N)c(C#N)c32)n1)[C@@H]1C[C@H](F)CN1C [II-83] | – | – | 5130 nM | < 1 µg/mL | < 1 µg/mL |
| C[C@H](Oc1cc([C@H]2CCOC2)nc(-c2noc3c2CCC[C@@]32CCCc3sc(N)c(C#N)c32)n1)[C@@H]1CCCN1C [II-88] | – | 126 nM | 1980 nM | – | – |
| CO[C@@H]1C[C@@H]([C@H](C)Oc2cc(-c3ccn(C4COC4)n3)nc(-c3noc4c3CCC[C@@]43CCCc4sc(N)c(C#N)c43)n2)N(C)C1 [II-107] | – | – | 7270 nM | > 162 µg/mL | < 1 µg/mL |

The next lines start with the values.

| IC50 (NCI-H358 cells; [2]) | IC50 (NCI-H358 cells; [3]) | IC50 (AsPC-1 cells) | solubility at 24 h [1, 4] | solubility at 24 h [1, 5] | SMILES |
| --- | --- | --- | --- | --- | --- |
| – | – | 2830 nM | > 154 µg/mL | 102 µg/mL (≈ 179 µM) | Cc1nccn1-c1cc(O[C@@H](C)[C@@H]2CCCN2C)nc(-c2noc3c2CCC[C@@]32CCCc3sc(N)c(C#N)c32)n1 [II-79] |
| – | – | 5080 nM | – | – | C[C@H](Oc1cc(-c2cncs2)nc(-c2noc3c2CCC[C@@]32CCCc3sc(N)c(C#N)c32)n1)[C@@H]1CCCN1C [II-80] |
| – | 106 nM | 3060 nM | – | – | C[C@H](Oc1cc(-c2cn[nH]c2)nc(-c2noc3c2CCC[C@@]32CCCc3sc(N)c(C#N)c32)n1)[C@@H]1CCCN1C [II-87] |
| – | 3250 nM | 3810 nM | – | – | C[C@H](Oc1cc(N2CCc3cccnc32)nc(-c2noc3c2CCC[C@@]32CCCc3sc(N)c(C#N)c32)n1)[C@@H]1CCCN1C [II-90] |
| – | 3400 nM | 3920 nM | – | – | C[C@H](Oc1cc(-n2cccc3cnnc2-3)nc(-c2noc3c2CCC[C@@]32CCCc3sc(N)c(C#N)c32)n1)[C@@H]1CCCN1C [II-92] |
| – | – | 9770 nM | 120 µg/mL (≈ 196 µM) | 57 µg/mL (≈ 92.9 µM) | C[C@H](Oc1cc(-c2cn(C3COC3)nn2)nc(-c2noc3c2CCC[C@@]32CCCc3sc(N)c(C#N)c32)n1)[C@@H]1CCCN1C [II-100] |
| – | – | 2770 nM | 24 µg/mL (≈ 41.3 µM) | < 1 µg/mL | C[C@H](Oc1cc(-n2ccc(C#N)n2)nc(-c2noc3c2CCC[C@@]32CCCc3sc(N)c(C#N)c32)n1)[C@@H]1CCCN1C [II-102] |
| – | – | – | 53 µg/mL (≈ 90.2 µM) | < 1 µg/mL | Cc1nc(-c2cc(O[C@@H](C)[C@@H]3CCCN3C)nc(-c3noc4c3CCC[C@@]43CCCc4sc(N)c(C#N)c43)n2)cs1 [II-103] |
| – | 391 nM | – | 3 µg/mL (≈ 4.94 µM) | < 1 µg/mL | C[C@H](Oc1cc(-c2ccn3ncnc3c2)nc(-c2noc3c2CCC[C@@]32CCCc3sc(N)c(C#N)c32)n1)[C@@H]1CCCN1C [II-104] |
| – | – | 6520 nM | – | – | C[C@H](Oc1cc(-n2ccncc2=O)nc(-c2noc3c2CCC[C@@]32CCCc3sc(N)c(C#N)c32)n1)[C@@H]1CCCN1C [II-116] |

— patent publication US20240174690A1, “ANNULATED 2-AMINO-3-CYANO THIOPHENES AND DERIVATIVES FOR THE TREATMENT OF CANCER” (BOEHRINGER INGELHEIM INTERNATIONAL GMBH, priority 2021, published 2024)
